# Tests used:
# [1] = Incorporation of photocatalysts into TPU films versus process time, absorption spectroscopy against blank film (Beispiele 7a-9b); assay type: physicochemical; details: TPU Folie, Rezeptur 1; Beispiel 7b, Tabelle 41
# Description: Im nächsten Schritt wurde die Verwendbarkeit der verschiedene Photokatalysatorklassen, ausgewählt aus Phenalen-1-on-Derivaten, Curcumin-Derivaten und Porphycen-Derivaten, mit unterschiedlichen Eigenschaften - von neutral unpolar bis ionisch polar - auf Ihre Verwendbarkeit und Wirkung im Verfahren untersucht.
# Zur Beurteilung der optimalen Prozesszeit bei Einsatz der Photokatalysatoren, wurden TPU Folienstücke nach Beschreibung in Beispiel 4 zu je 1, 2, 5 und 10 min in den Imprägnierlösungen behandelt, gegebenenfalls auch 30 und 60 min bei undeutlichen Ergebnissen.
# Als Basisformulierung wurde Rezeptur 1 nach Beispiel 2 verwendet.
# Nach der angegebenen Prozesszeit wurden die Folie entnommen, mit Wasser gewaschen und für 1h bei 40°C getrocknet/abgelüftet.
# Die Folien wurden durch Absorptionsspektroskopie gegen ein Blank-Folienstück direkt vermessen, beim Maximum der Absorption des Photokatalysators. Dabei ergaben sich in Abhängigkeit der Prozesszeit folgende Werte, die in den Tabellen 40 bis
# [2] = Leaching stress test B following DIN EN 16105, nine immersion cycles (Beispiel 10 B); assay type: physicochemical; details: Immersion test B (DIN EN 16105), medium Wasser, plastic TPU, Rezeptur 1 nach Beispiel 1
# Description: Der Test wurde in Anlehnung an die DIN EN 16105:2011-12 ("[…] zur Bestimmung der Freisetzung von Substanzen aus Beschichtungen in intermittierendem […] unter A) beschrieben erzeugt. Es wurde vollentsalztes Wasser mit einem pH-Wert von (6 ± 1) und einer Wassertemperatur von (22 ± 3) °C verwendet. Beim Test wurden jeweils neun Tauchzyklen durchgeführt. […] Die erforderliche Wassermenge (z. B. 250 mL pro 100 cm2) musste hinzugefügt werden. Für jedes Eintauchen wurde frisches deionisiertes Wasser verwendet. Jeder Probekörper wurde in […]. Die […] so […] von Wasser mit der untersuchten Oberfläche möglich war. Der Tauchbehälter wurde dabei abgedeckt, um ein Verdunsten von Wasser während des Eintauchens zu […]. Der Überschuss wird direkt im UV-VIS-Spektrometer vermessen, vor dem ersten Immersionszyklus und nach Zyklen 1, 3, 5, 7 und 9. Die Ausgangswerte (Absorptionsmaximum des jeweiligen […] dabei zwischen 0,05 A.U. und 1,00 A.U. liegen. Die […] Immersionstest B
# [3] = test system: S.aureus ATCC 6538; assay: Antibacterial activity of impregnated films, modified ISO 22196 with illumination (Beispiele 11-16, 25); assay type: cell-based
# Source text: (§1) Die Bestimmung der antimikrobiellen Aktivität erfolgte nach einer modifizierten Version der ISO 22196:2011-08 ("Messung von antibakterieller Aktivität auf Kunststoff- und anderen porenfreien Oberflächen", Ausgabedatum: 2011-08).
# (§2) Bei der Testdurchführung wurde ein dünner Flüssigkeitsfilm, in dem die Bakterien enthalten sind (1,25 x 10^4 /cm^2), direkt auf die Probenkörper (3 x 3 cm) aufgebracht. Direkt nach Beimpfung wurden von der Nullprobe die Bakterien von den Probenkörperoberflächen mittels Ultraschall und Vortexen abgelöst und die Keimzahl (KBE (engl. CFU), Kolonie-bildende Einheit) bestimmt (t0-Wert).
# (§3) Nach 4h wurden überlebende Bakterien von den Probenkörperoberflächen mittels Ultraschall und Vortexen abgelöst und die Keimzahl bestimmt (t4-Wert).
# (§4) Im Unterschied zu der in der ISO 22196:2011-08 beschreibenen Methode wurde das Inokulum nicht mit einer Folie abgedeckt und die Inkubationszeit wurde von 24 auf 4 Stunden reduziert. Weiterhin wurden die Probenkörper der Proben 3 und 4 mit Licht der Intensität 20mW/cm2 für 10min belichtet, um eine biozide Wirkung nach Bestrahlung mit elektromagnetischer Strahlung zu bestimmen.
# Verwendet wurden TPU Folienstücke, die nach dem in Beispiel 4 beschriebenen Verfahren mit Rezeptur 1 behandelt wurden. Rezeptur 1 wurde hergestellt nach Beispiel 2. […] Der Test wurde in Anlehnung an ISO 22196 nach oben beschriebener Methode durchgeführt.
# TPU-Folienstücke wurden ebenfalls nach dem in Beispiel 4 beschriebenen Verfahren mit verschiedenen Rezepturen behandelt, die gemäß Beispiel 2 hergestellt wurden. Die Farbstoffkonzentration in der Imprägnierlösung betrug jeweils 1 mM F-24b. Der Test wurde in Anlehnung an ISO 22196 nach oben beschriebener Methode durchgeführt.
# Die Farbstoffkonzentration in der Imprägnierlösung betrug jeweils 1 mM.
# Die Photokatalysator-Konzentration von F-24b wurde variiert.
# Es wurde ein Bakterientest in Anlehnung an ISO 22196 nach oben beschriebener Methode durchgeführt.
# [4] = test system: S. aureus; assay: Bactericidal effect after leaching/washing stress B and C (Beispiel 18), modified ISO 22196; assay type: cell-based; details: TPU film, Rezeptur 1, 1 mM
# Source text: as §1, §2, §3, §4
# Um die Haltbarkeit des Photokatalysators innerhalb der Folie bzw. dessen Auswaschen gegen gängige Reinigungsmittel zu untersuchen, wurden damit Immersionstest in Wasser und 70% Isopropanol durchgeführt.
# Die Folien wurden anschließend mit dem unter B) und C) beschrieben Belastungsverfahren mit den in den Tabellen gezeigten Medien behandelt und in ihrer Wirksamkeit vor/nach Belastung verglichen.
# [5] = test system: S. aureus; assay: Bactericidal effect after tempering (Beispiel 19), modified ISO 22196; assay type: cell-based; details: TPU film, Rezeptur 1, 1 mM
# Source text: as §1, §2, §3, §4
# Weiterhin wurde die Belastbarkeit des Photokatalysators in der Folie mit zusätzlichen Tests wie Tempern bei 80°C und Dampfsterilisation bei 121°C untersucht. […]
# [6] = test system: S. aureus; assay: Bactericidal effect after steam sterilisation (Beispiel 20), modified ISO 22196; assay type: cell-based; details: TPU Folie, Rezeptur 1, 1 mM F-24b; after Dampfsterilisation 121°C, 2 h
# Source text: as §1, §2, §3, §4
# Weiterhin wurde die Belastbarkeit des Photokatalysators in der Folie mit zusätzlichen Tests wie Tempern bei 80°C und Dampfsterilisation bei 121°C untersucht.
# [7] = Comparative examples 23-25: impregnation of unsuitable plastics or with a fluorescent dye, visual evaluation; assay type: physicochemical; details: 0,2 mm starke Polycarbonatfolien; 60 min Einwirkzeit
# Description: Die Farbstoffkonzentration in der Imprägnierlösung betrug jeweils 1 mM bei Phenalen-1-on- und Curcuminderivaten, 0,1 mM bei Prophycenderivaten.
# Es wurden 0,2 mm starke Polycarbonatfolien eingesetzt und mit Imprägnierlösungen enthaltend die Photokatalysatoren F-24b, F-64a oder F-73 behandelt.
# Es wurden TPU Folien eingesetzt und mit einer Imprägnierlösung enthaltend den Farbstoff 2-Chloro-6-(3-hydroxypropylamino)-1-phenalenon (CAS 113722-81-9) behandelt.
# [8] = test system: S.aureus ATCC 6538; assay: Antibacterial activity of impregnated films, modified ISO 22196 with illumination (Beispiele 11-16, 25); assay type: cell-based; details: Beispiel 14; TPU film; Rezeptur 1 (nach Beispiel 1); 1 mM photocatalyst in impregnation solution; light 20mW/cm2 10min
smiles,measurement,setting,value
CC(C)(O)c1cc[n+](CC2=Cc3cccc4cccc(c34)C2=O)cc1 [F-24b],Abs. 1 min,[1],"0,185"
same,Abs. 2 min,[1],"0,198"
same,Abs. 5 min,[1],"0,257"
same,Abs. 10 min,[1],"0,456"
same,Abs. nach Auswaschen,[2],"0,006"
same,Berechneter Verlust in %,[2],"4,9%"
same,Log10 Reduktion Hauptprobe,"[3]; Beispiel 13, TPU film, Rezeptur 1 nach Beispiel 2, 1 mM in impregnation solution, light 20mW/cm2 10min","4,0 ± 0,3 log10"
same,Log10 Reduktion Hauptprobe,"[3]; Beispiel 13, TPU film, Rezeptur 2 nach Beispiel 2, 1 mM in impregnation solution, light 20mW/cm2 10min","1,8 ± 1,3 log10"
same,Log10 Reduktion Hauptprobe,"[3]; Beispiel 13, TPU film, Rezeptur 3 nach Beispiel 2, 1 mM in impregnation solution, light 20mW/cm2 10min","4,2 ± 0,8 log10"
same,Log10 Reduktion Hauptprobe,"[3]; Beispiel 13, TPU film, Rezeptur 8 nach Beispiel 3, 1 mM in impregnation solution, light 20mW/cm2 10min","3,5 ± 0,5 log10"
same,Log10 Reduktion Hauptprobe,"[3]; Beispiel 15, TPU film, Rezeptur 1, photocatalyst concentration 0,5 mM","2,5 ± 1,4 log10"
same,Log10 Reduktion Hauptprobe,"[3]; Beispiel 15, TPU film, Rezeptur 1, photocatalyst concentration 0,25 mM","2,8 ± 1,3 log10"
same,Log10 Reduktion Hauptprobe,"[3]; Beispiel 15, TPU film, Rezeptur 1, photocatalyst concentration 1 mM","3,5 ± 0,5 log10"
same,Log10 Reduktion Hauptprobe,"[3]; Beispiel 16, film material CPI (Polyimid), Rezeptur 1, 1 mM","3,0 ± 0,1 log10"
same,Log10 Reduktion Hauptprobe,"[3]; Beispiel 16, film material Nitril, Rezeptur 1, 1 mM","3,8 ± 0,3 log10"
same,Log10 Reduktion Hauptprobe,"[3]; Beispiel 16, film material PET-G, Rezeptur 1, 1 mM","4,0 ± 0,1 log10"
same,Log10 Reduktion Hauptprobe,"[3]; Beispiel 16, film material PVC, Rezeptur 1, 1 mM","3,9 ± 0,8 log10"
same,Log10 Reduktion Hauptprobe,"[3]; Beispiel 16, film material Silikon, Rezeptur 1, 1 mM","3,4 ± 0,1 log10"
same,Log10 Reduktion Hauptprobe,"[3]; Beispiel 16, film material Surlyn, Rezeptur 1, 1 mM","3,6 ± 0,5 log10"
same,Log10 Reduktion Hauptprobe,"[3]; Beispiel 16, film material TPU, Rezeptur 1, 1 mM","4,0 ± 0,3 log10"
same,Log10 Reduktion Hauptprobe,"[3]; TPU Folie, Rezeptur 1, 1 mM F-24b, Licht 20mW/cm2 für 10min, Gram-positiv","4,0 ± 0,3 log10"
same,Log10 Reduktion Hauptprobe,"[4]; After Auswaschen nach DIN EN 16105, procedure B), Wasser (dest.)","1,9 ± 0,5 log10"
same,Log10 Reduktion Hauptprobe,"[4]; After Screening Test - Immersion, procedure A), 70% Isopropanol","1,9 ± 0,6 log10"
same,Log10 Reduktion Hauptprobe,"[4]; After Screening Test - Immersion, procedure A), Wasser (dest.)","3,3 ± 0,7 log10"
same,Log10 Reduktion Hauptprobe,"[4]; After Washability nach DIN EN ISO 11998, procedure C), cleaner Neutraldesinfizierend","4,5 ± 0,6 log10"
same,Log10 Reduktion Hauptprobe,"[4]; After Washability nach DIN EN ISO 11998, procedure C), cleaner Sauer-oxidierend","4,8 ± 0,3 log10"
same,Log10 Reduktion Hauptprobe,[5]; After 1 Woche 80°C Tempern,"3,0 ± 1,1 log10"
same,Log10 Reduktion Hauptprobe,[5]; After 1 h 80 °C Tempern,"4,1 ± 0,1 log10"
same,Log10 Reduktion Hauptprobe,[6],"1,5 ± 0,3 log10"
same,Verfärbung,[7],keine Verfärbung
same,Log10 Reduktion Hauptprobe,[8],"4,0 ± 0,3 log10"

# Reference: patent EP4458804A1, “METHOD FOR PRODUCING AN OBJECT, PHENALEN-1-ONE COMPOUND AND USE THEREOF” (TriOptoTec GmbH, priority 2023, dated 2024)
